In publication PMC6759397 (Journal of pharmaceutical sciences, 2019):
Like-named read-outs stand apart in the source and are kept apart here.

Key:
OATP1B1 [1] = biological target: T1, OATP1B1 (Homo sapiens, UniProt Q9Y6L6); details: read-out: reported Km for OATP1B1; HEK293 cells; cited from earlier work
T1 sequence (Q9Y6L6 1-691): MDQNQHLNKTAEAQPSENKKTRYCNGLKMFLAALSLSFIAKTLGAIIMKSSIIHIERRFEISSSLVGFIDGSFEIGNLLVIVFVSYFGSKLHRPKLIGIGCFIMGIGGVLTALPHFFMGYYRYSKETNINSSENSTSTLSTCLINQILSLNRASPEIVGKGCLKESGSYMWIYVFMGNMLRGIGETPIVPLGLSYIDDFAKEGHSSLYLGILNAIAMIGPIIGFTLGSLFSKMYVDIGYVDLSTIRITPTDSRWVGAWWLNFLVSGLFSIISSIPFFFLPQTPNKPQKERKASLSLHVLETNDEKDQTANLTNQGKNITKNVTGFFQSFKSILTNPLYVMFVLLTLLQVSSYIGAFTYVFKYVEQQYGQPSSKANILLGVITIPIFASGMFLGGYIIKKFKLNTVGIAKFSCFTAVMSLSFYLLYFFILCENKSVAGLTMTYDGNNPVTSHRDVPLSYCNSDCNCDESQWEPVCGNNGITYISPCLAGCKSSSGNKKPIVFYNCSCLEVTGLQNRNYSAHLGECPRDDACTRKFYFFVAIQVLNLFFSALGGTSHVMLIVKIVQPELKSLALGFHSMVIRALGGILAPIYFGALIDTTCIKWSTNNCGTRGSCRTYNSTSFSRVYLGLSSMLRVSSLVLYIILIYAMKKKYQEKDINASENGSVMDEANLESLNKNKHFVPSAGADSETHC

HEK293-OATP1B1 = experiment: LDH assay; format: cell-based, human; details: 1 h pre-incubation, EVR 0.001–10 µM, SIR 0.01–5 µM
mTOR C1 = experiment: Immunoblot of phosphorylated p70S6K; format: cell-based, human; details: 1 h pre-incubation: EVR 0.2 µM, SIR 0.5 µM, INK-128 10 µM; vs vehicle control
OATP1B1 [2] = biological target: T1, OATP1B1; details: substrate E1S; without pre-incubation; cited from earlier work
P-gp = details: Caco-2 monolayers; cited from earlier work
CYP3A5 = details: cited from earlier work
OATP1A2 = details: cited from earlier work
CYP3A4 = details: cited from earlier work
mTOR C2 = experiment: Immunoblot of phosphorylated AKT; format: cell-based, human; details: 1 h pre-incubation: EVR 0.2 µM, SIR 0.5 µM, INK-128 10 µM; vs vehicle control
OATP1B1 [3] = biological target: T1, OATP1B1; experiment: Static R-value model for OATP1B1-mediated DDI
[4] = human erythrocytes, blood concentration range 5–100 ng/ml; cited from earlier work
OATP1B1 [5] = biological target: T1, OATP1B1; details: for OATP1B1-mediated transport ([3H]-E217βG accumulation): 1 h pre-incubation alone: EVR 0.2 µM, SIR 0.5 µM, INK-128 10 µM; for OATP1B1-mediated transport of [3H]-E1S after pre-incubation / OATP1B1-mediated transport of [3H]-rosuvastatin after pre-incubation: 1 h pre-incubation, EVR 0.1 or 0.2–10 µM, SIR 0.1–5 µM, 0.5 min, concentration-dependent, p<0.001; for OATP1B1-mediated transport of [3H]-E1S after pre-incubation: E1S 25 nM; for OATP1B1-mediated transport of [3H]-rosuvastatin after pre-incubation: rosuvastatin 20 nM
HEK293-OATP1B3 = details: 1 h pre-incubation, EVR 0.001–10 µM, SIR 0.01–5 µM
OATP1B1 [6] = biological target: T1, OATP1B1; experiment: Transport kinetics of OATP1B1-mediated E217βG transport in HEK293 cells; format: cell-based; details: co-incubation with 5 µM inhibitor, without pre-incubation
[7] = cited from earlier work
OATP1B3 [8] = biological target: T2, OATP1B3 (Homo sapiens, UniProt Q9NPD5); experiment: Inhibition of OATP1B3-mediated [3H]-CCK-8 transport in HEK293-OATP1B3 cells; format: cell-based; details: washing; for OATP1B3-mediated transport ([3H]-CCK-8 accumulation): 1 h pre-incubation alone: EVR 0.2 µM, SIR 0.5 µM, INK-128 10 µM; for OATP1B3-mediated [3H]CCK-8 accumulation: 1 h pre-incubation with EVR 0.2 µM
T2 sequence (Q9NPD5 1-702): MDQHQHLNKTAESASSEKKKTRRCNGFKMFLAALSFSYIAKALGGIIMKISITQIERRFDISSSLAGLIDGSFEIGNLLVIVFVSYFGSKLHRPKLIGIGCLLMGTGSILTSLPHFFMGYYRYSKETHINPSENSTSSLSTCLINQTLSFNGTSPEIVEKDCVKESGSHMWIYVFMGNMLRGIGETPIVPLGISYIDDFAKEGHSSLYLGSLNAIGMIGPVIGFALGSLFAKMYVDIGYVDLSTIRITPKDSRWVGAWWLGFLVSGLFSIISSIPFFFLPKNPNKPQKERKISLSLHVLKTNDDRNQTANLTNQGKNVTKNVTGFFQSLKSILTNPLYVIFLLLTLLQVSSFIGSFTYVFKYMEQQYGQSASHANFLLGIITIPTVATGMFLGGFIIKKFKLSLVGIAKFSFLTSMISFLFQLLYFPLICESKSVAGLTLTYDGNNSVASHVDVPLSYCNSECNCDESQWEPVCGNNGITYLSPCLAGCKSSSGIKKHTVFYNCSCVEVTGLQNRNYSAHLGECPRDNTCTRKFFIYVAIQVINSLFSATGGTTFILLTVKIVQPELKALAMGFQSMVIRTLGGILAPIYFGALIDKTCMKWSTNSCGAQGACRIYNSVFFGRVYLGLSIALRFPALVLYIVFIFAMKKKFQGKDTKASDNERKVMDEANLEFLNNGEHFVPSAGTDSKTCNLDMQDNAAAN

[9] = cited from earlier work; remark: listed apart in the source
OATP1B3 [10] = biological target: T2, OATP1B3; details: cited from earlier work
[11] = from co-incubation IC50, rosuvastatin
[12] = from pre+co-incubation IC50, E217βG
[13] = from pre+co-incubation IC50, rosuvastatin
[14] = IC50, [3H]-E1S (25 nM, 0.5 min), co-incubation
[15] = IC50, [3H]-E1S (25 nM, 0.5 min), pre+co-incubation (1 h pre-incubation)
[16] = IC50, [3H]-E217βG (1 µM, 2 min), co-incubation
[17] = IC50, [3H]-E217βG (1 µM, 2 min), pre+co-incubation (1 h pre-incubation)
[18] = IC50, [3H]-rosuvastatin (20 nM, 0.5 min), co-incubation
[19] = IC50, [3H]-rosuvastatin (20 nM, 0.5 min), pre+co-incubation (1 h pre-incubation)

Molecule | Km (OATP1B1 [1]) | toxicity (LDH assay) (HEK293-OATP1B1) | amount of phosphorylated p70S6K at T389 (mTOR C1) | IC50 (OATP1B1 [2]) | inhibition of OATP1A2 (OATP1A2) | phosphorylation of AKT at S473 (mTOR C2) | R (OATP1B1 [3]; [11]) | R (OATP1B1 [3]; [12]) | R (OATP1B1 [3]; [13]) | OATP1B1-mediated transport ([3H]-E217βG accumulation) (OATP1B1 [5]; washing) | OATP1B1-mediated transport of [3H]-E1S after pre-incubation (OATP1B1 [5]) | OATP1B1-mediated transport of [3H]-rosuvastatin after pre-incubation (OATP1B1 [5]) | IC50 (OATP1B1 [5]; [14]) | IC50 (OATP1B1 [5]; [15]) | IC50 (OATP1B1 [5]; [16]) | IC50 (OATP1B1 [5]; [17]) | IC50 (OATP1B1 [5]; [18]) | IC50 (OATP1B1 [5]; [19]) | toxicity (LDH assay) (HEK293-OATP1B3) | OATP1B3-mediated transport ([3H]-CCK-8 accumulation) (OATP1B3 [8]) | other results
C[C@]12CC[C@@H]3c4ccc(OS(=O)(=O)O)cc4CC[C@H]3[C@@H]1CCC2=O [E1S, estrone-3-sulfate] | 0.46 µM |  |  |  |  |  |  |  |  |  |  |  |  |  |  |  |  |  |  |  | 
C[C@]12CC[C@@H]3c4ccc(O)cc4CC[C@H]3[C@@H]1CC[C@@H]2O[C@@H]1O[C@H](C(=O)O)[C@@H](O)[C@H](O)[C@H]1O [E217βG, estradiol 17 β-D-glucuronide] | 8.29 µM |  |  |  |  |  |  |  |  |  |  |  |  |  |  |  |  |  |  |  | 
CO[C@H]1C[C@@H]2CC[C@@H](C)[C@@](O)(O2)C(=O)C(=O)N2CCCC[C@H]2C(=O)O[C@H]([C@H](C)C[C@@H]2CC[C@@H](OCCO)[C@H](OC)C2)CC(=O)[C@H](C)/C=C(\C)[C@@H](O)[C@@H](OC)C(=O)[C@H](C)C[C@H](C)/C=C/C=C/C=C/1C [EVR, everolimus] |  | negligible toxicity | markedly reduced | 4100 ± 1100 nM | inhibit | did not inhibit | 1.03 (1.02–1.09) | 1.19 (1.16–1.26) | 1.23 (1.10–1.42) | 0.67 ± 0.02 fold of control | significantly decreased | significantly decreased | 610 ± 80 nM | 160 ± 20 nM | 480 ± 70 nM | 230 ± 60 nM | 1580 ± 920 nM | 190 ± 70 nM | negligible toxicity | 0.60 ± 0.03 fold of control | basolateral-to-apical vs apical-to-basolateral transport (P-gp): ~ 20 fold; Ki (CYP3A5; CYP3A5): 90 nM; fu,mic (CYP3A5): 0.14; Ki (CYP3A4; CYP3A4): 90 nM; fu,mic (CYP3A4): 0.14; erythrocyte binding [4]: approximately 85%; Ki (OATP1B1 [5]): 22 nM; OATP1B1-mediated rosuvastatin accumulation (OATP1B1 [5]; 1 h pre-incubation with EVR 0.2 µM, washing, 4 h in fresh EVR-free medium): 0.87 ± 0.03 fold of CTL; OATP1B1-mediated transport of [3H]rosuvastatin (OATP1B1 [5]; after 1 h pre-incubation with EVR 0.2 µM, washing): 0.54 ± 0.07 fold of control; effect on Vmax of OATP1B1 (OATP1B1 [6]): 1.2–1.7 fold vs. CTL; increase of Km of OATP1B1 (OATP1B1 [6]): 6–10 fold; Compound type [7]: Neutral; OATP1B3-mediated [3H]CCK-8 accumulation (OATP1B3 [8]; 4 h in EVR-free medium): 0.76 ± 0.04 fold of CTL; OATP1B3-mediated [3H]CCK-8 accumulation (OATP1B3 [8]; 6 h in EVR-free medium): 0.73 ± 0.04 fold of CTL; OATP1B3-mediated [3H]CCK-8 accumulation (OATP1B3 [8]; 22 h in EVR-free medium): 0.81 ± 0.06 fold of CTL; OATP1B3-mediated transport of [3H]CCK-8 (OATP1B3 [8]; after 1 h pre-incubation with EVR 0.2 µM): 0.76 ± 0.05 fold of control; Vss [9]: 1.55 (CV 36.0%) L/kg; steady-state AUC vs single dose AUC [9]: approximately 1.5 fold higher; time to steady state ([9]; multiple doses, 10 mg daily): around 7 days
CC(C)n1nc(-c2ccc3oc(N)nc3c2)c2c(N)ncnc21 [INK-128] |  |  | markedly reduced |  |  | markedly reduced |  |  |  | did not significantly affect |  |  |  |  |  |  |  |  |  | did not significantly affect | 
CO[C@H]1C[C@@H]2CC[C@@H](C)[C@@](O)(O2)C(=O)C(=O)N2CCCC[C@H]2C(=O)O[C@H]([C@H](C)C[C@@H]2CC[C@@H](O)[C@H](OC)C2)CC(=O)[C@H](C)/C=C(\C)[C@@H](O)[C@@H](OC)C(=O)[C@H](C)C[C@H](C)/C=C/C=C/C=C/1C [SIR, sirolimus] |  | negligible toxicity | markedly reduced | 9800 ± 1100 nM | inhibit | did not inhibit | 1.00 (1.00–1.03) | 1.01 (1.01–1.02) | 1.01 (1.01–1.03) | 0.60 ± 0.05 fold of control | significantly decreased | significantly decreased | 830 ± 100 nM | 650 ± 120 nM | 640 ± 160 nM | 220 ± 40 nM | 560 ± 300 nM | 320 ± 110 nM | negligible toxicity | 0.49 ± 0.03 fold of control | R (OATP1B1 [3]): 1.00 (1.00–1.01); R (OATP1B1 [3]; from the previously published co-incubation IC50 (E1S, ref 24)): 1.00; effect on Vmax of OATP1B1 (OATP1B1 [6]): 1.2–1.7 fold vs. CTL; increase of Km of OATP1B1 (OATP1B1 [6]): 6–10 fold; time to steady state ([9]; multiple twice daily doses of 0.5–6.5 mg/m^2, stable renal transplant patients): 5 to 7 days
cholecystokinin 8 [CCK-8] |  |  |  |  |  |  |  |  |  |  |  |  |  |  |  |  |  |  |  |  | Km (OATP1B3 [10]): 3.8 µM
